Patent publication US7067658B2, “Pyridino and pyrimidino pyrazinones” (Bristol-Myers Squibb Company, priority 2002, dated 2006)
pIC50: −log10 of the molar value. Where two headings read alike, the source gives them in different places.

Biological target: T1, cloned human CRF1 receptors (Homo sapiens, UniProt P34998)
T1 construct: the coding region is amplified by PCR from start to stop codons; expressed in transfected cells; host or cells: 293EBNA cells (episomal vector phchCRFR, hygromycin selection); membrane homogenate
T1 sequence (P34998 24-415): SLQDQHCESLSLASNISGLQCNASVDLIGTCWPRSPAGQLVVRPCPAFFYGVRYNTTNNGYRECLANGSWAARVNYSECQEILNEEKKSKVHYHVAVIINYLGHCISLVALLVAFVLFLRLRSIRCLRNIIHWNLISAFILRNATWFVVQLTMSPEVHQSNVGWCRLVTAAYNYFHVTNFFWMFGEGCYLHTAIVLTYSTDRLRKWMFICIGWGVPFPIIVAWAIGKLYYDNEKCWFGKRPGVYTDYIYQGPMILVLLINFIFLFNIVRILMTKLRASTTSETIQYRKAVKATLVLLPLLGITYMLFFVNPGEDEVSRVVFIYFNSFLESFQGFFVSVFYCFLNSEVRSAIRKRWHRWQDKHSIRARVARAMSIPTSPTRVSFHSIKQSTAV
Experiment: CRF1 receptor binding assay (inhibition of 125I-ovine-CRF binding to membranes of 293EBNA cells transfected with hCRFR1)
Excerpt: Provided herein is an example of a CRF1 receptor binding assay that can be used for the evaluation of biological activity of compounds of the present invention. The example also includes isolation of cell membranes containing cloned human CRF1 receptors for use in the binding assay.
Messenger RNA is isolated from human hippocampus by standard techniques. The mRNA is reverse transcribed using oligo (dt) 12–18 and the coding region is amplified by PCR from start to stop codons The resulting PCR fragment is cloned into the EcoRV site of pGEMV, from whence the insert is reclaimed using XhoI+XbaI and cloned into the XhoI+XbaI sites of vector pm3ar (which contains a CMV promoter, the SV40 ‘t’ splice and early poly A signals, an Epstein-Barr viral origin of replication, and a hygromycin selectable marker). […] Cells surviving 4 weeks of selection in hygromycin are pooled, adapted to growth in suspension, and used to generate membranes for the binding assay described below. Individual aliquots containing approximately 1×10^8 of the suspended cells are then centrifuged to form a pellet and frozen.
The homogenate is centrifuged at 40,000×g for 12 min and the resulting pellet rehomogenized in 10 mL of tissue buffer. After another centrifugation at 40,000×g for 12 min, the pellet is resuspended to a protein concentration of 360 μg/ml to be used in the assay.
Binding assays are performed in 96 well plates; each well having a 300 μL capacity. […] Plates are then allowed to incubate at room temperature for 2 hours before filtering the incubate over GF/F filters (presoaked with 0.3% polyethyleneimine) using an appropriate cell harvester. Filters are rinsed 2 times with ice cold assay buffer before removing individual filters and assessing them for radioactivity on a gamma counter.

[1] = IC50 ranges as class symbols a-e, read-out: IC50 Range* (potency of binding to CRF1 receptor)
[2] = IC50 ranges, class symbols a-e, read-out: IC50 Range* (potency of binding to CRF1 receptor)

SMILES | pIC50 [2] | also measured
CCC(C1CC1)n1c(=O)c(C)nc2c(-c3cc(C)c(OC)cc3Cl)ccnc21 (stereo not shown) [Example 484, 8-(2-Chloro-4-methoxy-5-methyl-phenyl)-4-(1-cyclopropyl-propyl)-2-methyl-4H-pyrido[2,3-b]pyrazin-3-one] | – | pIC50 [1]: > 9.00
CCC(COC)n1c(=O)c(C)nc2c(-c3ccc(Cl)cc3Cl)ccnc21 (racemic) [Example 10, (R,S)-8-(2,4-dichloro-phenyl)-4-(1-methoxymethyl-propyl)-2-methyl-4H-pyrido[2,3-b]pyrazin-3-one] | 8.00 to 9.00 | –
CCCCC(CC)n1c(=O)c(C)nc2c(-c3ccc(OC)nc3C)ccnc21 (racemic) [Example 97, (R,S)-4-(1-ethyl-pentyl)-8-(6-methoxy-2-methyl-pyridin-3-yl)-2-methyl-4H-pyrido[2,3-b]pyrazin-3-one] | 6.00 to 7.00 | –
CCC(COC)n1c(=O)c(C)nc2c(-c3cc(Cl)c(OC)cc3C)ccnc21 (stereo not shown) [Example 459, 8-(5-Chloro-4-methoxy-2-methyl-phenyl)-4-(1-methoxymethyl-propyl)-2-methyl-4H-pyrido[2,3-b]pyrazin-3-one] | – | pIC50 [1]: 8.00 to 9.00
CCC(COC)n1c(=O)c(C)nc2c(-c3cc(C)c(OC)cc3Cl)ccnc21 (stereo not shown) [Example 491, 8-(2-Chloro-4-methoxy-5-methyl-phenyl)-4-(1-methoxymethyl-propyl)-2-methyl-4H-pyrido[2,3-b]pyrazin-3-one] | – | pIC50 [1]: > 9.00
CCC(C1CC1)n1c(=O)c(C)nc2c(-c3cc(F)c(N(C)C)cc3Cl)ccnc21 (stereo not shown) [Example 500, 8-(2-Chloro-4-dimethylamino-5-fluoro-phenyl)-4-(1-cyclopropyl-propyl)-2-methyl-4H-pyrido[2,3-b]pyrazin-3-one] | – | pIC50 [1]: > 9.00
Cc1nc2c(-c3ccc(OC(F)(F)F)cc3Cl)ncnc2n(C(C)C2CC2)c1=O (stereo not shown) [Example 1062, 4-(2-Chloro-4-trifluoromethoxy-phenyl)-8-(1-cyclopropyl-ethyl)-6-methyl-8H-pteridin-7-one] | – | pIC50 (IC50 ranges as class symbols a-e, read-out: IC50 Range (potency of binding to CRF1 receptor)): 6.00 to 7.00
CCC(COC)n1c(=O)c(C)nc2c(-c3cc(F)c(OC)cc3Cl)ccnc21 (stereo not shown) [Example 250, 8-(2-Chloro-5-fluoro-4-methoxy-phenyl)-4-(1-methoxymethyl-propyl)-2-methyl-4H-pyrido[2,3-b]pyrazin-3-one] | – | pIC50 (Potency of binding to CRF1 receptor, listed as IC50 ranges, read-out: IC50 Range*): 8.00 to 9.00
CCCC(CCC)n1c(=O)c(C)nc2c(-c3ccc(OC)cc3Cl)ccnc21 [Example 18, (R,S)-8-(2-chloro-4-methoxy-phenyl)-2-methyl-4-(1-propyl-butyl)-4H-pyrido[2,3-b]pyrazin-3-one] | 8.00 to 9.00 | –
Cc1nc2c(-c3ccc(Cl)cc3Cl)ccnc2n(CC(C)C)c1=O [Example 1, (R,S)-8-(2,4-dichloro-phenyl)-4-isobutyl-2-methyl-4H-pyrido[2,3-b]pyrazin-3-one] | < 6.00 | –
COCC(C)n1c(=O)c(C)nc2c(-c3cc(F)c(N(C)C)cc3Cl)ccnc21 (stereo not shown) [Example 506, 8-(2-Chloro-4-dimethylamino-5-fluoro-phenyl)-4-(2-methoxy-1-methyl-ethyl)-2-methyl-4H-pyrido[2,3-b]pyrazin-3-one] | – | pIC50 [1]: 8.00 to 9.00
CCCC(CCC)n1c(=O)c(C)nc2c(-c3ccc(OC)cc3Cl)ncnc21 [Example 563, 4-(2-Chloro-4-methoxy-phenyl)-6-methyl-8-(1-propyl-butyl)-8H-pteridin-7-one] | 8.00 to 9.00 | –
COCC(C)n1c(=O)c(C)nc2c(-c3ccc(Cl)cc3Cl)ccnc21 (racemic) [Example 9, (R,S)-8-(2,4-dichloro-phenyl)-4-(2-methoxy-1-methyl-ethyl)-2-methyl-4H-pyrido[2,3-b]pyrazin-3-one] | 7.00 to 8.00 | –
CCCC(C)n1c(=O)c(C)nc2c(-c3ccc(Cl)cc3Cl)ccnc21 (racemic) [Example 2, (R,S)-8-(2,4-dichloro-phenyl)-2-methyl-4-(1-methyl-butyl)-4H-pyrido[2,3-b]pyrazin-3-one] | 7.00 to 8.00 | –
CCC(COC)n1c(=O)c(C)nc2c(-c3cc(F)c(N(C)C)cc3Cl)ccnc21 (stereo not shown) [Example 507, 8-(2-Chloro-4-dimethylamino-5-fluoro-phenyl)-4-(1-methoxymethyl-propyl)-2-methyl-4H-pyrido[2,3-b]pyrazin-3-one] | – | pIC50 [1]: > 9.00
CCC(C1CC1)n1c(=O)c(C)nc2c(-c3cc(Cl)c(OC)cc3C)ccnc21 (stereo not shown) [Example 452, 8-(5-Chloro-4-methoxy-2-methyl-phenyl)-4-(1-cyclopropyl-propyl)-2-methyl-4H-pyrido[2,3-b]pyrazin-3-one] | – | pIC50 [1]: > 9.00
CCC(C)n1c(=O)c(C)nc2c(-c3ccc(Cl)cc3Cl)ncnc21 (racemic) [Example 546, (R,S)-8-sec-Butyl-4-(2,4-dichloro-phenyl)-6-methyl-8H-pteridin-7-one] | 6.00 to 7.00 | –
CCC(C)n1c(=O)c(C)nc2c(-c3ccc(OC(F)F)cc3Cl)ccnc21 (racemic) [Example 113, (R,S)-4-sec-butyl-8-(2-chloro-4-difluoromethoxy-phenyl)-2-methyl-4H-pyrido[2,3-b]pyrazin-3-one] | 7.00 to 8.00 | –
COCC(C)n1c(=O)c(C)nc2c(-c3ccc(OC)nc3C)ncnc21 (stereo not shown) [compound 650] | < 6.00 | –

Second part, led by results:

pIC50 [2] | SMILES | also measured
7.00 to 8.00 | CCCC(C1CC1)n1c(=O)c(C)nc2c(-c3ccc(OC)nc3C)ccnc21 (racemic) [Example 101, (R,S)-4-(1-cyclopropyl-butyl)-8-(6-methoxy-2-methyl-pyridin-3-yl)-2-methyl-4H-pyrido[2,3-b]pyrazin-3-one] | –
8.00 to 9.00 | CCCC(C1CC1)n1c(=O)c(C)nc2c(-c3ccc(OC(F)F)cc3Cl)ccnc21 (racemic) [Example 117, (R,S)-8-(2-Chloro-4-difluoromethoxy-phenyl)-4-(1-cyclopropyl-butyl)-2-methyl-4H-pyrido[2,3-b]pyrazin-3-one] | –
8.00 to 9.00 | CCC(C1CCC1)n1c(=O)c(C)nc2c(-c3ccc(OC)cc3Cl)ccnc21 (stereo not shown) [compound 23] | –
8.00 to 9.00 | CCCC(C1CC1)n1c(=O)c(C)nc2c(-c3ccc(OC)cc3C)ccnc21 (racemic) [Example 69, (R,S)-4-(1-cyclopropyl-butyl)-8-(4-methoxy-2-methyl-phenyl)-2-methyl-4H-pyrido[2,3-b]pyrazin-3-one] | –
7.00 to 8.00 | COCC(C)n1c(=O)c(C)nc2c(-c3ccc(OC)cc3Cl)ccnc21 (stereo not shown) [compound 25] | –
8.00 to 9.00 | CCCC(C1CC1)n1c(=O)c(C)nc2c(-c3ccc(Cl)cc3Cl)ccnc21 (racemic) [Example 5, (R,S)-4-(1-cyclopropyl-butyl)-8-(2,4-dichloro-phenyl)-2-methyl-4H-pyrido[2,3-b]pyrazin-3-one] | –
